Assay results: ChEMBL document CHEMBL1165964, “Design and synthesis of spirotryprostatin-inspired diketopiperazine systems from prolyl spirooxoindolethiazolidine derivatives” (Bioorg Med Chem, 2010)
Activity calls are given as the source filed them. The calls are words filed in the database; no cut-off is given here.

Experiments:
Assay type in all cases: functional, cell-based
[1] = test system: MCF7; assay: Cytotoxicity against human MCF7 cells after 48 hrs by MTT assay; conditions: MCF7, 48 h
[2] = Cell cycle arrest in mouse tsFT210 cells assessed as accumulation of cells at G2/M phase
[3] = test system: MCF7; assay: Cell cycle arrest in human MCF7 cells
[4] = test system: MCF7; assay: Cytotoxicity against human MCF7 cells at 100 uM after 48 hrs by MTT assay
[5] = test system: T47D; assay: Cytotoxicity against human T47D cells at 100 uM after 48 hrs by MTT assay
[6] = test system: A-431; assay: Cytotoxicity against human A431 cells at 100 uM after 48 hrs by MTT assay

| SMILES | IC50 [1] | IC50 [2] | Activity [3] | Activity [4] | Activity [5] | Activity [6] |
| --- | --- | --- | --- | --- | --- | --- |
| CCOC(=O)[C@@]1(c2cc(Br)ccc2N)SC[C@H]2C(=O)N3CCC[C@H]3C(=O)N21 | 2200 nM | – | – | – | – | – |
| COc1ccc2c(c1)NC(=O)[C@@]21C[C@H]2C(=O)N3CCC[C@H]3C(=O)N2[C@H]1C=C(C)C [SPIROTRYPROSTATIN A] | – | 198 µM | – | – | – | – |
| O=C1[C@@H]2CS[C@@]3(C(=O)Nc4ccccc43)N2C(=O)[C@@H]2CCCN12 | – | – | inactive | inactive | inactive | inactive |
| CN1C(=O)[C@@]2(SC[C@H]3C(=O)N4CCC[C@H]4C(=O)N32)c2ccccc21 | – | – | inactive | inactive | inactive | inactive |
| O=C1[C@@H]2CS[C@]3(C(=O)Nc4ccccc43)N2C(=O)[C@@H]2CCCN12 | – | – | inactive | inactive | inactive | inactive |
| CCOC(=O)[C@@]1(c2cc(C)ccc2N)SC[C@H]2C(=O)N3CCC[C@H]3C(=O)N21 | 1600 nM | – | – | – | – | – |
| Cc1ccc2c(c1)[C@@]1(SC[C@H]3C(=O)N4CCC[C@H]4C(=O)N31)C(=O)N2 | – | – | inactive | inactive | inactive | inactive |
| Cc1ccc2c(c1)[C@]1(SC[C@H]3C(=O)N4CCC[C@H]4C(=O)N31)C(=O)N2 | – | – | inactive | inactive | inactive | inactive |
| CN1C(=O)[C@]2(SC[C@H]3C(=O)N4CCC[C@H]4C(=O)N32)c2ccccc21 | – | – | inactive | inactive | inactive | inactive |
| O=C1[C@@H]2CS[C@]3(C(=O)Nc4ccc(Br)cc43)N2C(=O)[C@@H]2CCCN12 | – | – | inactive | inactive | inactive | inactive |
| CCOC(=O)[C@@]1(c2ccccc2N)SC[C@H]2C(=O)N3CCC[C@H]3C(=O)N21 | 14800 nM | – | – | – | – | – |
| O=C1[C@@H]2CS[C@@]3(C(=O)Nc4ccc(Br)cc43)N2C(=O)[C@@H]2CCCN12 | – | – | inactive | inactive | inactive | inactive |
